Non-standard residues stand in square brackets, D forms with d. Residues, ends and D or L forms follow the SMILES beside them. No end group written: not given here. *: point of attachment. 4Abz = Nc1ccc(C(=O)O)cc1; NHOH = ON*
Key:
platelets [1] = test: Collagen-dependent aggregation of gel-filtered human platelets (light transmittance); assay type: cell-based; conditions: 5 μg/ml collagen; 1,10-PA 100 μM, MMP-200 200 nM, FN-439 3 μM, RWJ-56110 1 μM, PAR1 Ab 75 μg/ml, pepducins 3 μM, PPACK 200 μM, hirudin 1 U/ml
Method: Platelet pellets and their supernatants were prepared as follows. […] following established informed consent procedures. […] Alternatively, whole blood was obtained from Hartley Sprague guinea pigs (drawn from the vena cava) into 3% citrate plus 10 U/ml heparin. Washed platelets from the guinea pigs were prepared in PIPES buffer. Platelet aggregation was measured with a Chronolog 560VS/490-2D aggregometer using modified PIPES buffer as a blank. Samples were incubated for 5 min in the presence of inhibitors and 1.8 mM CaCl2 prior to addition of agonist. All reactions were in final volumes of 250 μl at 37° C. while stirring at 900 rpm.
The effect of pharmacologic blockage of metalloproteases or PAR1 on collagen-dependent platelet aggregation was then tested (see FIG. 5). Gel-filtered platelets from healthy individuals (supplemented with 0.3 mg/ml fibrinogen) were challenged with 5 μg/ml collagen in the presence or absence (0.2% DMSO vehicle) of the indicated inhibitors and allowed to stir at 900 rpm in an aggregometer cuvette (250 μL) at 37° C.
In FIG. 5A, platelet aggregation was monitored by light transmittance.

[2] = Angiogenesis in adventitia of abdominal aorta of ApoE-/- mice (CD31 whole mount immunostaining); assay type: in vivo, mouse; conditions: 15 weeks
Method: Angiogenesis may promote the progression of atherosclerosis and contribute to plaque instability and rupture. […] Angiogenesis was therefore evaluated in the adventitia of aortas from apoE−/− mice fed a high fat diet for 15 weeks and treated with either the MMP-1 collagenase inhibitor, MMP Inh-1 (FN-439) or the PAR1 antagonist, P1pal-7. The mice were then anesthetized with Ketamine/Xylazine and pressure fixed with 10% formalin. The abdominal aorta was isolated, removed and fixed for 1 hour with 10% formalin and adventitial fat was removed. The abdominal aorta were then whole mount immunostained for CD31, a marker for endothelial cells and 3D projection images were constructed from multiple confocal sections using the following procedure. Briefly, the tissue was blocked for 1 hour with 5% goat serum in Tris buffered saline containing 0.3% Triton-X 100 (TBST) and incubated overnight at 4° C. with primary antibody diluted 1:1000 in TBST. After several washes with TBST, the tissue was incubated with fluorescently tagged secondary antibody diluted in TBST for 4 hours. The tissue was washed and post-fixed with 4% paraformaldehyde for 10 minutes. The aorta was then cut lengthwise and splayed open onto a microscope slide with the adventitial side up. The tissue was whole mounted with Vectashield mounting media and imaged using a Leica TCS SP2 confocal microscope […]. Confocal images were constructed into 3D projections of Z-stacks. Quantification of images was performed using NIH ImageJ. Antibodies used were: hamster anti-mouse PECAM-1 (Chemicon) and Cy3-anti-hamster (Jackson Immunolabs).

PAR1 [3] = test: P1pal-7 ammonium acetate salt: IC50 and PAR1 specificity (test not described); conditions: ammonium acetate salt of P1pal-7 in 100% water
MMP-1 = target: T1, MMP-1 (Cavia porcellus, UniProt H0V812); test: Collagen zymography of arterial clots from FeCl3-injured carotid arteries; assay type: in vivo, guinea pig
T1 construct: endogenous in cells; host or cells: platelets of Hartley guinea pigs
T1 sequence (H0V812 1-472): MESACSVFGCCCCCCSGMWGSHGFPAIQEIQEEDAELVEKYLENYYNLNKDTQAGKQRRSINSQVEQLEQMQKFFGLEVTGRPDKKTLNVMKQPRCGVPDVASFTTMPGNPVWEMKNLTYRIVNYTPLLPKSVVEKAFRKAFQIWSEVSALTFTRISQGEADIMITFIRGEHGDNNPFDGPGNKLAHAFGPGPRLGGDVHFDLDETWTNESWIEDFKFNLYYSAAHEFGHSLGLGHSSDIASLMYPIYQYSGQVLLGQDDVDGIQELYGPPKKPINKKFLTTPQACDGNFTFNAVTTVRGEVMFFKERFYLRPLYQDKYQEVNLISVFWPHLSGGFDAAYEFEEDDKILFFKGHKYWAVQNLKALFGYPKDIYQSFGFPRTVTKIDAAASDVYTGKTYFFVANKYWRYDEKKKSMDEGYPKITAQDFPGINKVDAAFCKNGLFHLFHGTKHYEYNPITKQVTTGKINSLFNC
Method: MMP-1 activity with the dots was determined by collagent zymography (see FIG. 6H). Platelets were isolated from guinea pigs and stimulated with 20 μg/ml collagen for 15 min and platelet supernatants and pellets, or whole resting platelets (control), prepared as described Above. Samples were resolved on a 8% type I collagen/acrylamide zymography gel and collagenase zymogram was developed as described by (Gogly et al., 1998) or immunoblotted with MMP1-Ab, AB806. Arterial dots were also removed from the Fe—Cl irnjured carotid arteries from animals (n=5) treated with FN-439 (FN439 clot) or vehicle (veh dot) as in 6F and 6G and dots were dissolved in lysis buffer and passed 5× through a 21-gauge needle. The lysates were centrifuged and supernatents resolved on the zymography gel. The two lanes on the left side of the western blot have 20 ng of proMMP-1 or 20 ng APMA-activated MMP-1, and the right hand lane in the zymogram has 0.5 μg of APMA-activated human MMP-1.

platelets [4] = test: Clot retraction assay in human platelet-rich plasma, collagen initiated; assay type: cell-based; conditions: 2.5-5 μg/ml collagen (titration 1-20 μg/ml); FN-439 5 μM, RWJ-56110 1 μM, MMP9/13 Inh 10 nM; 90 or 240 min
Method: Platelet rich plasma (PRP) was isolated from human whole blood anti-coagulated with 4% sodium citrate. Clot retraction assays were done in 1 ml volumes containing 800 μl PBS and 200 μl PRP plus 10 μl red blood cells to enhance contrast. Samples were pretreated with FN-439 (5 μM), MMP9/13 Inh (10 nM) or RWJ-56110 (1 μM) for 15 min and clot formation was initiated with 1-20 μg/ml type I fibrillar collagen. Samples were incubated at 37° C. for 90 or 240 min and then photographed with a digital camera. Each photograph in FIG. 6I is representative of three independent experiments.

PAR1 [5] = test: Release of PAR1 N-terminal cleavage peptide from gel-filtered platelets (dot blot, IIaR-A antibody); assay type: cell-based, human
From the text: To further understand how collagen is able to activate significant amounts of endogenous MMP-1 collagenase activity on the surface of platelets, experiments were devised to determine if PAR-1 is cleaved in either an autocrine or paracrine manner following exposure to collagen. Using a monoclonal antibody raised against the amino-terminal thrombin-cleavage peptide region of PAR1, residues 32-46 (Loew et al., 2000), the relative abilities of thrombin, MMP-1 and collagen to cause cleavage of platelet PAR1 was assessed. Gel filtered platelets were treated for 10 min with thrombin (3 nM), MMP-1 (3 nM), collagen (5 μg/ml), in the presence or absence (PBS buffer) of 0.00013 U hirudin or 5 μM FN-439 at 37° C. Supernatants were concentrated 20-fold and applied to nitrocellulose membranes, then probed with the IIaR-A monoclonal antibody. The PAR1 N-terminal thrombin deavage peptide (A26-R41) and PAR1 flexible linker peptide (N-acetyl-T67-L84 -C) (Kuliopulos et al., 1999) served as positive and negative controls (100 ng), respectively.
These platelets were then stimulated with collagen (5 μg/ml) for 10 min. at 37° C. Supernatants were concentrated 20-fold and applied to nitrocellulose membranes, then probed with the IIaR-A monoclonal antibody. […] FN-439, or an MMP1-blocking antibody (20 μg/ml) but not by thrombin inhibitor, hirudin (see FIG. 1E, FIG. 1G).

| Compound | inhibition (loss) of collagen-induced platelet aggregation (platelets [1]) | amount of CD31-positive vessels [2] | number of branch points per vessel area [2] | number of vascular bundles in the adventitia of the aorta [2] | specificity for PAR1 (PAR1 [3]) | active MMP-1 in arterial thrombi of treated animals (MMP-1) | inhibition of clot formation and retraction (platelets [4]) | block of MMP-1-induced release of N-terminal cleavage peptide of PAR1 (PAR1 [5]; 3 nM MMP-1, 5 μM FN-439) | block of collagen-induced release of PAR1 N-terminal peptide (PAR1 [5]; 5 μg/ml collagen, 10 min, 37° C., Ab 20 μg/ml, ARC 0.5 μM, ASA 1 mM) |
| --- | --- | --- | --- | --- | --- | --- | --- | --- | --- |
| P1pal-7: PAR1 i3 loop pepducin lipopeptide, KKSRALF (SEQ ID NO. 2), palmitate (also: palmitate, site not given here) | identical levels of inhibition as blocking MMP-1 | significantly reduced | significantly inhibited | significantly reduced | retains specificity for PAR1 | – | – | – | – |
| CC(C)C[C@@H](NC(=O)[C@@H]1CCCN1C(=O)CNC(=O)c1ccc(N)cc1)C(=O)N[C@H](C)C(=O)NO [FN-439] (H-[4Abz]GP[dL][dA]-{NHOH}) | – | significantly reduced | significantly inhibited | significantly reduced | – | did not contain active MMP-1 | completely inhibited | blocked | specifically blocked |
